The target of assay [1] is T1, TYR (Agaricus bisporus, UniProt C7FF04). Kind of assay: TYR inhibit assay (spectrophotometry, L-tyrosine substrate). The assay is classed as biochemical. On the set-up: purchased Sigma-Aldrich. As for the experimental part: TYR inhibition by PLR extract solution, selected compounds and Kojic acid was analyzed by spectrophotometry. The solution comprised 50 µL of the mixed ligand solution (the corresponding ligand standards were diluted 50-fold with PBS) incubated with 50 µL TYR solution (0.1 U/mL ) for 30 min at room temperature, followed by the addition of 100 µL L-tyrosine (0.4 mM) and incubation for another 30 min at 30 °C. Absorbance was measured in triplicate at 480 nm and inhibition ratios were calculated from the mean of the triplicate observations according to Equation (2):(2) Inhibitory Ratio (%) = Ab−Ae/Ab × 100%, where Ab and Ae represented the absorption of blank groups and experiment groups, respectively.
Target sequence in this assay (C7FF04 1-392): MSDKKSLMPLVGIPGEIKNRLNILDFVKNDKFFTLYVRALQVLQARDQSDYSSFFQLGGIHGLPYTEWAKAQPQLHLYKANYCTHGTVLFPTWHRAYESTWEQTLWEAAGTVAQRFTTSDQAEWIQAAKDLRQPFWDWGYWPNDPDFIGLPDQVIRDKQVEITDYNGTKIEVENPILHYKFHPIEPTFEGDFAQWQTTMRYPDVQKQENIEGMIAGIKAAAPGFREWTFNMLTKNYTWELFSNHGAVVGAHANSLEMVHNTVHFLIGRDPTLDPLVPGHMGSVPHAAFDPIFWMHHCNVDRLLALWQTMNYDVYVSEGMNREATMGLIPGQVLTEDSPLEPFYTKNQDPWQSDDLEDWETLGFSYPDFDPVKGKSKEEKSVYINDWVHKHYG

Assay [2] deals with T1, TYR. Description: TYR-site blocking affinity ultrafiltration screening with HPLC. The settings on record: specific ligand when (Ab − Ae)/Ab ≥ 50% and (Ac − Ae)/Ac ≥ 50%; TYR 0.1 mg/mL, 30 °C, 30 min, 5000× g; peaks of PLR extract.
Target sequence in this assay (C7FF04 1-392 limits assumed): as the sequence (C7FF04 1-392) above
Experimental: PLR-extract solution (100 µL) mixed with 100 µL diluted TYR solution and incubated at the best UF parameters. The unbound compounds can pass through the ultrafiltration membrane into the filtrates (F1), whereas the enzyme-ligand complexes remained in the chamber. After washing the retained complexes twice with 200 µL PBS (pH 6.8) to remove the residual unbound compounds, 200 µL methanol (80% (v/v)) was added into chamber and ultrasonic for 15 min to disrupt the complexes and release the ligands. The mixture was then centrifuge at 5000× g for 15 min, the filtrates (F2) containing the selected compounds were passed through a 0.45 µm filter membrane prior to HPLC analysis. For blank groups, PBS (pH 6.8) containing 2% DMSO was used to incubate with the TYR solution, followed by performance of the protocol described here. All experiments were performed in triplicate.
The PLR extract solution was added to the reaction solution and the protocol described in Section 2.5 was followed prior to HPLC analysis. All experiments were performed in triplicate.
The mark [3] stands for this setting: TYR inhibitory activity, L-tyrosine 0.4 mM, absorbance at 480 nm, triplicate, read-out: IC50 ± SD.

Read-outs that look alike come from different tables or passages of the source.

In the case of `O=c1c(-c2ccc(O)cc2)coc2c(C3OC(COC4OCC(O)(CO)C4O)C(O)C(O)C3O)c(O)ccc12` (stereo not shown) [Mirificin, mirificin], the IC50 on TYR [1] (setting [3]) came to 12.7 ± 2.77 µM. Moreover, the “binding to TYR in ultrafiltration with kojic acid site blocking” value (“binding to TYR in ultrafiltration” for short) at TYR [2] is given as “potential specific TYR ligands”.

At TYR [1], `O=c1c(-c2ccc(O)cc2)coc2cc(O[C@@H]3O[C@H](CO)[C@@H](O)[C@H](O)[C@H]3O)ccc12` [Daidzin, daidzin] displayed an IC50 above 500 µM. In addition, the “binding to TYR in ultrafiltration” value at TYR [2] is on record as “potential specific TYR ligands”.

Consider `COc1ccc2c(c1)OC(=O)C=C(c1ccc(O)cc1)C(OC1OC(CO)C(O)C(O)C1O)C2` (stereo not shown) [compound 11, sophoroside A], for which the “binding to TYR in ultrafiltration” value at TYR [2] is “not recognized as specific TYR inhibitors”.

Turning to `O=c1c(-c2ccc(O)cc2)coc2c(C3OC(COC4OCC(O)(CO)C4O)C(O)C(O)C3O)c(O)cc(O)c12` (stereo not shown) [compound 7, genistein-8-C-apiosyl(16)-glucoside], at TYR [2], the “binding to TYR in ultrafiltration” value is “not recognized as specific TYR inhibitors”.

Regarding `O=c1c(-c2ccc(O)cc2)coc2cc(O[C@@H]3O[C@H](CO)[C@@H](O)[C@H](O)[C@H]3O)cc(O)c12` [Genistin, genistin], the IC50 on TYR [1] (setting [3]) is above 500 µM. Further, the “binding to TYR in ultrafiltration” value at TYR [2] was “potential specific TYR ligands”.

In turn, `O=c1c(-c2ccc(O)cc2)coc2c([C@@H]3O[C@H](CO)[C@@H](O)[C@H](O)[C@H]3O)c(O)ccc12` [Puerarin, puerarin] showed a half-maximal inhibitory concentration (IC50) at TYR [1] of 9.83 ± 1.45 µM. Moreover, the “binding to TYR in ultrafiltration” value at TYR [2] is “potential specific TYR ligands”.

Source of the values: publication PMC6222779, “Enzyme-Site Blocking Combined with Optimization of Molecular Docking for Efficient Discovery of Potential Tyrosinase Specific Inhibitors from Puerariae lobatae Radix” (Molecules : A Journal of Synthetic Chemistry and Natural …, 2018).
